Activity calls are given as the source filed them. The calls are words filed in the database; no cut-off is given here.
Molecular target: T1, Protein mono-ADP-ribosyltransferase PARP11 (Homo sapiens) (UniProt Q9NR21)
T1 sequence (whole entry): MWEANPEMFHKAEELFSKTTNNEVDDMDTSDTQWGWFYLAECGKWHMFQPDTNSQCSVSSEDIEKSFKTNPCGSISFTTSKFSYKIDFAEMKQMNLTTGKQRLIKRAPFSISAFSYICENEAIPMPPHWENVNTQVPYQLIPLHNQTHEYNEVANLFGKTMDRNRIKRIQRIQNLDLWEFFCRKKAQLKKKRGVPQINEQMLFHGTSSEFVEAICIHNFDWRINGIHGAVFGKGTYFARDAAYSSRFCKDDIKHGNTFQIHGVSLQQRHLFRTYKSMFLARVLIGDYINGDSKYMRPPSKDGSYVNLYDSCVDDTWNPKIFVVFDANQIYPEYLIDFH
Assay: Inhibition of PARP11 (unknown origin)

Row | SMILES | inhibition
1 | Cc1cc(OCC(=O)NCCNC(=O)c2cccc(COc3ccccc3C(N)=O)c2)c2c3c(c(=O)oc2c1)CCC3 | inactive
2 | CNC(=O)[C@H](CNC(=O)CCn1c(=O)[nH]c(=O)c2ccccc21)NC(=O)c1cnc2ccccc2c1 | inactive
